Measured values as given in ChEMBL document CHEMBL1201862, “PubChem BioAssay data set” (2004).
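Exposure lasted 48 hours, with cells grown in 96-well plates and compounds tested at five concentrations. The concentration for 50% growth inhibition is given as GI50.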 Activity calls are given as the source filed them. Cut-off read from the data, not from the text of the source: active = GI50 up to about 1.1 µM and inactive = higher.

Columns and labels:
Assay in all cases: inhibition of tumour cell growth, NCI panel, 48 h
MOLT-4 = system: MOLT-4
OVCAR-8 = system: OVCAR-8
HCT-116 = system: HCT-116
LOX IMVI = system: LOX IMVI
ACHN = system: ACHN
OVCAR-4 = system: OVCAR-4
SF-295 = system: SF-295
Malme-3M = system: Malme-3M
A498 = system: A498
HOP-92 = system: HOP-92
TK-10 = system: TK-10
HL-60 = system: HL-60
MDA-MB-435 = system: MDA-MB-435
MDA-MB-231 = system: MDA-MB-231
PC-3 = system: PC-3
MDA-N = system: MDA-N
DU-145 = system: DU-145
Hs-578T = system: Hs-578T
RXF 393 = system: RXF 393

SMILES	GI50 (MOLT-4)	GI50 (OVCAR-8)	GI50 (HCT-116)	GI50 (LOX IMVI)	GI50 (ACHN)	GI50 (OVCAR-4)	GI50 (SF-295)	GI50 (Malme-3M)	GI50 (A498)	GI50 (HOP-92)	GI50 (TK-10)	GI50 (HL-60)	GI50 (MDA-MB-435)	GI50 (MDA-MB-231)	GI50 (PC-3)	GI50 (MDA-N)	GI50 (DU-145)	GI50 (Hs-578T)	GI50 (RXF 393)
CN/N=C(/Cc1occc(=O)c1O)C(=O)Nc1ccc(C)c(C)c1	> 100 µM (inactive)	> 100 µM (inactive)	> 100 µM (inactive)	> 100 µM (inactive)	> 100 µM (inactive)	> 100 µM (inactive)	> 100 µM (inactive)	> 100 µM (inactive)	> 100 µM (inactive)	> 100 µM (inactive)	> 100 µM (inactive)	> 100 µM (inactive)	–	–	–	–	–	–	–
CCN(CC)CCC(=O)/C=C/c1ccc(Cl)c(Cl)c1	3.01 µM (inactive)	4.21 µM (inactive)	1.71 µM (inactive)	–	3.03 µM (inactive)	9.35 µM (inactive)	> 10 µM (inactive)	3.77 µM (inactive)	–	> 10 µM (inactive)	2.65 µM (inactive)	0.302 µM (active)	3.21 µM (inactive)	3.48 µM (inactive)	4.31 µM (inactive)	2.63 µM (inactive)	> 10 µM (inactive)	–	–
COC1CC(OC2C(C)OC(OC3C(C)OC(OC4C(O)CC(O[C@H]5CC[C@@]6(C)C(=CC[C@]7(O)[C@@H]6C[C@@H](OC(=O)/C=C/c6ccccc6)[C@@]6(C)[C@]7(O)CC[C@@]6(O)C(C)=O)C5)OC4C)CC3OC)CC2OC)OC(C)C1O (stereo not given in full)	> 6.25 µM (inactive)	> 6.25 µM (inactive)	> 6.25 µM (inactive)	> 6.25 µM (inactive)	> 6.25 µM (inactive)	> 6.25 µM (inactive)	> 6.25 µM (inactive)	> 6.25 µM (inactive)	–	> 6.25 µM (inactive)	> 6.25 µM (inactive)	> 6.25 µM (inactive)	> 6.25 µM (inactive)	> 6.25 µM (inactive)	> 6.25 µM (inactive)	> 6.25 µM (inactive)	> 6.25 µM (inactive)	> 6.25 µM (inactive)	–
CCOC(=O)c1c(N)n(-c2ccccc2)c(=S)n(-c2ccccc2)c1=O	> 100 µM (inactive)	> 100 µM (inactive)	–	> 100 µM (inactive)	> 100 µM (inactive)	> 100 µM (inactive)	> 100 µM (inactive)	> 100 µM (inactive)	–	> 100 µM (inactive)	> 100 µM (inactive)	> 100 µM (inactive)	> 100 µM (inactive)	> 100 µM (inactive)	–	> 100 µM (inactive)	> 100 µM (inactive)	> 100 µM (inactive)	> 100 µM (inactive)
CSC1=NS(=O)(=O)c2cc(C(=O)NN(C)C(=O)c3cc4c(cc3Cl)SC(SC)=NS4(=O)=O)c(Cl)cc2S1	> 10 µM (inactive)	> 10 µM (inactive)	> 10 µM (inactive)	> 10 µM (inactive)	> 10 µM (inactive)	> 10 µM (inactive)	> 10 µM (inactive)	> 10 µM (inactive)	> 10 µM (inactive)	> 10 µM (inactive)	> 10 µM (inactive)	> 10 µM (inactive)	–	–	> 10 µM (inactive)	> 10 µM (inactive)	> 10 µM (inactive)	> 10 µM (inactive)	> 10 µM (inactive)
O=C1CCCc2cc3c(cc21)CC1(Cc2ccccc2C1)C3	3.52 µM (inactive)	6.28 µM (inactive)	3.9 µM (inactive)	6.53 µM (inactive)	4.55 µM (inactive)	6.31 µM (inactive)	4.03 µM (inactive)	9.79 µM (inactive)	9.12 µM (inactive)	10.8 µM (inactive)	7.16 µM (inactive)	1.84 µM (inactive)	1.91 µM (inactive)	8.18 µM (inactive)	> 100 µM (inactive)	1.42 µM (inactive)	–	7.59 µM (inactive)	8.83 µM (inactive)
Cc1ccc(S(=O)(=O)N2CCSCCN(S(=O)(=O)c3ccc(C)cc3)CCN(S(=O)(=O)c3ccc(C)cc3)CC2)cc1	> 100 µM (inactive)	37.8 µM (inactive)	78.5 µM (inactive)	–	–	> 100 µM (inactive)	26.4 µM (inactive)	–	69.7 µM (inactive)	0.184 µM (active)	–	> 100 µM (inactive)	> 100 µM (inactive)	17.4 µM (inactive)	–	> 100 µM (inactive)	> 100 µM (inactive)	25.7 µM (inactive)	27.9 µM (inactive)
CC1=NN(c2nc(N)nc(CCl)n2)CC1	19.7 µM (inactive)	20.8 µM (inactive)	24.5 µM (inactive)	–	17.3 µM (inactive)	16.8 µM (inactive)	30.2 µM (inactive)	–	42.3 µM (inactive)	19.3 µM (inactive)	55.5 µM (inactive)	12 µM (inactive)	32 µM (inactive)	40 µM (inactive)	36.2 µM (inactive)	–	56.4 µM (inactive)	26.3 µM (inactive)	49.8 µM (inactive)
